# Where two headings read alike, the source gives them in different places.
# How the values were obtained:
# α4β2* nAChRs [1] = details: pigs, CI; ref Brust et al., 2008; cited from earlier work
# [2] = 5-[^123I]IA SPECT of the living human brain, VOI kinetic analysis; format: in vivo, Humans (Homo sapiens); details: human, intravenous
# [3] = molecular target: high-affinity α4β2* neuronal nicotinic acetylcholine receptors (nAChRs) (Homo sapiens, UniProt P17787+P43681); experiment: as above; format: in vivo, Humans (Homo sapiens)
# Sequence of high-affinity α4β2* neuronal nicotinic acetylcholine receptors (nAChRs) (P43681 29-627 limits assumed): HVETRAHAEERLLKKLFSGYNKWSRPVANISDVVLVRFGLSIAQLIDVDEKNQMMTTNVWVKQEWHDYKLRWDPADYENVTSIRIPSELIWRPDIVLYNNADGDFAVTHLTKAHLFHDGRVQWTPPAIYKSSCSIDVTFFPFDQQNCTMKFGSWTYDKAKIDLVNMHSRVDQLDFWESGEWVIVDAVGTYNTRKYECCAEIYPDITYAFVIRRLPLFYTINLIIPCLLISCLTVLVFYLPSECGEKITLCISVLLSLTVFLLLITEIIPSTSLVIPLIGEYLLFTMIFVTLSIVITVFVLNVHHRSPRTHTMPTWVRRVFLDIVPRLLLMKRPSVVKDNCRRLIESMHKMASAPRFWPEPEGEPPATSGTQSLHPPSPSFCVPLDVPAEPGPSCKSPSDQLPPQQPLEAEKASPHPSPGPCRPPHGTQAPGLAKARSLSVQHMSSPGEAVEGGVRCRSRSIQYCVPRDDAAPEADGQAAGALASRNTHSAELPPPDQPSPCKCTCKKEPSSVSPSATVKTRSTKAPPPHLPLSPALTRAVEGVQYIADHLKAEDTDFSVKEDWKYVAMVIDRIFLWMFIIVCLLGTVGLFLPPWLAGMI
# Sequence of high-affinity α4β2* neuronal nicotinic acetylcholine receptors (nAChRs) (P17787 26-502): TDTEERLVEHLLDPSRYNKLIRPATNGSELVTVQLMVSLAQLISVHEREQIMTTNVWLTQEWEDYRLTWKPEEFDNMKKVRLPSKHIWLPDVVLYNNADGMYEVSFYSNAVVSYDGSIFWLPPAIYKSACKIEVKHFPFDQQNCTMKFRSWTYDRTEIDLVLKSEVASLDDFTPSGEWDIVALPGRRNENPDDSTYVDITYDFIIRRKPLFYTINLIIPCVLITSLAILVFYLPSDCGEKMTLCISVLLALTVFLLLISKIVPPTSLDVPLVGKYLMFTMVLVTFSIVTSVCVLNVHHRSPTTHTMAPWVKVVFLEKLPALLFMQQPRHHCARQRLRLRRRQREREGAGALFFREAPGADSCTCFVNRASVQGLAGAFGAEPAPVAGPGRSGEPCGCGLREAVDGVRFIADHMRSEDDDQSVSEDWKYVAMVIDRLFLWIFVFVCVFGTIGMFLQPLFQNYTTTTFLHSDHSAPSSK
# [4] = Plasma metabolite analysis by column-switch HPLC after intravenous 5-[^123I]IA; format: in vivo, Humans (Homo sapiens); details: drawn simultaneously 30 minutes or later after administration
# [5] = Safety and tolerability monitoring after intravenous 5-[^123I]IA; format: in vivo, Humans (Homo sapiens)
# α4β2* nAChRs [6] = details: in rats; ref Saji et al., 2002; cited from earlier work
# α4β2* nAChRs [7] = details: in rats; ref Saji et al., 2002; cited from earlier work; remark: listed apart in the source
# α4β2* nAChRs [8] = details: ref Chefer et al., 1998; cited from earlier work
# α4β2* nAChRs [9] = details: ref Saji et al., 2002; cited from earlier work
# α4β2* nAChRs [10] = details: cited from earlier work
# α4β2* nAChRs [11] = details: cited from earlier work; remark: listed apart in the source
smiles,measurement,setting,value
"[18F]c1ccc([C@@H]2C[C@H]3CCC[C@@H]2N3)cn1 [(−)-[^18F]NCFHEB, [^18F]norchloro-fluoro-homoepibatidine]",Conclusion: attainment of equilibrium,α4β2* nAChRs [1],• (−)-[^18F]NCFHEB attains equilibrium before 2-[^18F]FA
"[123I]c1cncc(OC[C@@H]2CCN2)c1 [5-[^123I]IA, (S)-5-[^123I]iodo-3-(2-azetidinylmethoxy)pyridine]",Kp,"[2]; brain (cortex), 8.1 mCi, Distribution volume (DV), Cortex, subject 1, bolus",12.8
same,Kp,"[2]; brain (cortex), 8.8 mCi, Distribution volume (DV), Cortex, subject 4, bolus",7.62
same,Kp,"[2]; brain (cortex), 9.3 mCi, Distribution volume (DV), Cortex, subject 3, bolus",13
same,Kp,"[2]; brain (frontal lobe), 8.1 mCi, Distribution volume (DV), Frontal lobe, subject 1, bolus",9.6
same,Kp,"[2]; brain (frontal lobe), 8.8 mCi, Distribution volume (DV), Frontal lobe, subject 4, bolus",5.46
same,Kp,"[2]; brain (frontal lobe), 9.3 mCi, Distribution volume (DV), Frontal lobe, subject 3, bolus",8.56
same,Kp,"[2]; brain (fusiform gyrus), 8.1 mCi, Distribution volume (DV), Fusiform gyrus, subject 1, bolus",9.34
same,Kp,"[2]; brain (fusiform gyrus), 8.8 mCi, Distribution volume (DV), Fusiform gyrus, subject 4, bolus",5.68
same,Kp,"[2]; brain (fusiform gyrus), 9.3 mCi, Distribution volume (DV), Fusiform gyrus, subject 3, bolus",9.58
same,Kp,"[2]; brain (hippocampus), 8.1 mCi, Distribution volume (DV), Hippocampus, subject 1, bolus",13.5
same,Kp,"[2]; caudate head, Median DV of high plasma nicotine group, Caudate head, six volunteers",13.7
same,Kp,"[2]; caudate head, Median DV of low plasma nicotine group, Caudate head, six volunteers",21.9
same,Kp,"[2]; cerebellum, 8.1 mCi, Distribution volume (DV), subject 1, bolus",8.71
same,Kp,"[2]; cerebellum, 8.8 mCi, Distribution volume (DV), subject 4, bolus",5.4
same,Kp,"[2]; cerebellum, 9.3 mCi, Distribution volume (DV), subject 3, bolus",9.88
same,Kp,"[2]; cingulate cortex, Median DV of high plasma nicotine group, Cingulate cortex, six volunteers",12.6
same,Kp,"[2]; cingulate cortex, Median DV of low plasma nicotine group, Cingulate cortex, six volunteers",21.4
same,Kp,"[2]; cingulate gyrus, 8.1 mCi, Distribution volume (DV), subject 1, bolus",12.6
same,Kp,"[2]; cingulate gyrus, 8.8 mCi, Distribution volume (DV), subject 4, bolus",7.55
same,Kp,"[2]; cingulate gyrus, 9.3 mCi, Distribution volume (DV), subject 3, bolus",12.4
same,Kp,"[2]; frontal cortex, Median DV of high plasma nicotine group, Frontal cortex, six volunteers",9.6
same,Kp,"[2]; frontal cortex, Median DV of low plasma nicotine group, Frontal cortex, six volunteers",18
same,Kp,"[2]; fusiform gyrus, Median DV of high plasma nicotine group, Fusiform gyrus, six volunteers",9.46
same,Kp,"[2]; fusiform gyrus, Median DV of low plasma nicotine group, Fusiform gyrus, six volunteers",19.9
same,Kp,"[2]; head of the caudate nucleus, 8.1 mCi, Distribution volume (DV), Caudate head, subject 1, bolus",13.7
same,Kp,"[2]; head of the caudate nucleus, 8.8 mCi, Distribution volume (DV), Caudate head, subject 4, bolus",7.75
same,Kp,"[2]; head of the caudate nucleus, 9.3 mCi, Distribution volume (DV), Caudate head, subject 3, bolus",13.1
same,Kp,"[2]; hippocampus, 8.8 mCi, Distribution volume (DV), subject 4, bolus",8.32
same,Kp,"[2]; hippocampus, 9.3 mCi, Distribution volume (DV), subject 3, bolus",14.4
same,Kp,"[2]; occipital cortex, Median DV of high plasma nicotine group, Occiptal cortex, six volunteers",7.15
same,Kp,"[2]; occipital cortex, Median DV of low plasma nicotine group, Occiptal cortex, six volunteers",14.2
same,Kp,"[2]; occipital lobe, 8.1 mCi, Distribution volume (DV), Occiptal lobe, subject 1, bolus",7
same,Kp,"[2]; occipital lobe, 8.8 mCi, Distribution volume (DV), Occiptal lobe, subject 4, bolus",4.17
same,Kp,"[2]; occipital lobe, 9.3 mCi, Distribution volume (DV), Occiptal lobe, subject 3, bolus",7.15
same,Kp,"[2]; parietal cortex, Median DV of high plasma nicotine group, Parietal cortex, six volunteers",9.78
same,Kp,"[2]; parietal cortex, Median DV of low plasma nicotine group, Parietal cortex, six volunteers",17
same,Kp,"[2]; parietal lobe, 8.1 mCi, Distribution volume (DV), subject 1, bolus",9.78
same,Kp,"[2]; parietal lobe, 8.8 mCi, Distribution volume (DV), subject 4, bolus",5.17
same,Kp,"[2]; parietal lobe, 9.3 mCi, Distribution volume (DV), subject 3, bolus",8.71
same,Kp,"[2]; pons, 8.1 mCi, Distribution volume (DV), subject 1, bolus",15.1
same,Kp,"[2]; pons, 8.8 mCi, Distribution volume (DV), subject 4, bolus",9.23
same,Kp,"[2]; pons, 9.3 mCi, Distribution volume (DV), subject 3, bolus",20.4
same,Kp,"[2]; putamen, 8.8 mCi, Distribution volume (DV), subject 4, bolus",8.74
same,Kp,"[2]; putamen, 9.3 mCi, Distribution volume (DV), subject 3, bolus",15.6
same,Kp,"[2]; temporal cortex, Median DV of high plasma nicotine group, Temporal cortex, six volunteers",8.39
same,Kp,"[2]; temporal cortex, Median DV of low plasma nicotine group, Temporal cortex, six volunteers",15
same,time of maximal cerebellar uptake,[3]; after injection,40 min
same,time of peak thalamic uptake,[3]; after injection,approximately 140 minutes
same,brain uptake,[3]; living human brain,good brain uptake
same,reversibility of binding,[3]; time activity curves,reversible binding with substantial dissociation by 6 h
same,"extent of metabolism, arterial versus venous blood samples",[4],identical extents of metabolism
same,vital signs and electrocardiograms,[5]; before administration and subsequent 24 hours,normal
same,"abnormalities of behavior or movement (AIMS, BPRS)",[5]; before or after administration,no abnormalities of behavior or movement
same,"Electrocardiogram, blood pressure, and pulse","[5]; during each study, twelve healthy adults",did not change
same,Conclusion: safety and efficacy,"[5]; humans, smokers, nonsmokers, secondhand smoke exposure, current study","• 5-[^123I]IA is safe, efficacious in humans (smokers, nonsmokers, people with secondhand smoke exposure"
same,binding affinity relative to (−)-nicotine,α4β2* nAChRs [6],seven times greater
same,binding affinity relative to A-85380,α4β2* nAChRs [6],comparable to A-85380
same,regional brain uptake,α4β2* nAChRs [7],"high uptake in the thalamus, moderate uptake in the cortex, and low uptake in the cerebellum"
same,Conclusion: safety and efficacy,α4β2* nAChRs [8],5-[^123 I]IA is safe and efficacious for brain imaging in monkeys.
same,Conclusion: safety and efficacy,α4β2* nAChRs [9],"• 5-[^123I]IA is safe, efficacious in a marmoset."
same,Conclusion: regional uptake,"α4β2* nAChRs [10]; baboon, ref Baldwin et al., 2006","• Uptake high in thalamus, moderate in cortex and basal ganglia, low in cerebellum. SPECT brain radioactivity represents5-[^123I]IA distribution"
same,Conclusion: safety and efficacy,"α4β2* nAChRs [10]; ref Fujita et al., 2000","5-[^123I]IA is safe, efficacious in baboons."
same,Conclusion: metabolism and plasma protein binding by sex,"α4β2* nAChRs [11]; 29 nonsmokers, ref Cosgrove et al., 2007",greater in women than in men
same,Conclusion: safety and efficacy,"α4β2* nAChRs [11]; ref Fujita et al., 2002","• 5-[^123I]IA is safe, efficacious in humans."
same,Conclusion: safety and efficacy,"α4β2* nAChRs [11]; ref Ishizu et al., 2004","• 5-[^123I]IA is safe, efficacious in humans."
same,Conclusion: safety and efficacy,"α4β2* nAChRs [11]; ref Mamede et al., 2004","• 5-[^123I]IA is safe, efficacious in humans."
same,Conclusion: safety and efficacy,"α4β2* nAChRs [11]; ref Staley et al., 2005","• 5-[^123I]IA is safe, efficacious in humans."
same,Conclusion: safety and efficacy,"α4β2* nAChRs [11]; ref Ueda et al., 2004","• 5-[^123I]IA is safe, efficacious in humans."
